Where two headings read alike, the source gives them in different places.
What was measured:
M1 muscarinic receptor = M1 muscarinic receptor (Homo sapiens (Human), UniProt P11229); settings: cited from earlier work
[1] = cited from earlier work
[2] = target: recombinant human Muscarinic M1 receptor (Homo sapiens (Human), UniProt P11229); experiment: Allosteric potency EC50, CHO cells with pCRE-Luc reporter, in presence of EC20 of acetylcholine; type: cell-based; settings: 4 hours
Method in brief: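 Stable CHO cells carrying human M1 receptor and a pCRE-Luc reporter, serum-starved overnight, then exposed to rising compound concentrations plus EC20 acetylcholine in OptiMEM for 4 h at 37 °C. Luciferase read after lysis. EC50 is the concentration giving 50% luciferase stimulation with EC20 acetylcholine present.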

[3] = Rodent pharmacokinetic study; type: in vivo, rat; settings: male Wistar rats; for clearance / half-life / Vd / Cmax / Tmax / bioavailability: rat, plasma; for Vd: read-out: Vz; for bioavailability: 3 mg/kg oral vs 1 mg/kg i.v.
Procedure: Rodent Pharmacokinetic Study
Male Wistar rats (260±50 grams) were used as experimental animals. Animals were housed individually in polypropylene cage. Two days prior to study, male Wistar rats were anesthetized with isoflurane for surgical placement of jugular vein catheter. Rats were randomly divided for oral (3 mg/kg) and intravenous (1 mg/kg) dosing (n=3/group) and fasted overnight before oral dosing (p.o.). However, rats allocated to intravenous (i.v.) dosing food and water was provided ad libitum.
At pre-determined point, blood was collected through jugular vein and replenished with an equivalent volume of normal saline. Collected blood was transferred into a labeled eppendorf tube containing 10 μL of heparin as an anticoagulant. Typically blood samples were collected at following time points: 0.08, 0.25, 0.5, 1, 2, 4, 6, 8, and 24 hours post dose. Blood was centrifuged at 4000 rpm for 10 minutes. Plasma was separated and stored frozen at −80° C. until analysis. The concentrations of the test compounds were quantified in plasma by qualified LC-MS/MS method using suitable extraction technique. The test compounds were quantified in the calibration range around 1-1000 ng/mL in plasma. Study samples were analyzed using calibration samples in the batch and quality control samples spread across the batch.
Pharmacokinetic parameters Cmax, Tmax, AUCt, T1/2, clearance, Vz and bioavailability were calculated by non-compartmental model using standard non-compartmental model by using Phoenix WinNonlin 6.0.2 or 6.0.3 version Software package.

[4] = Rodent brain penetration study; type: in vivo; settings: rat, oral, 3 mg/kg, p.o., male Wistar rats, read-out: Single dose Rat Brain Penetration (Cb/Cp)
Procedure: Rodent Brain Penetration Study
Male Wistar rats (260±40 grams) were used as experimental animals. Three animals were housed in each cage. Animals were given water and food ad libitum throughout the experiment and maintained on a 12 hours light/dark cycle.
Brain penetration was determined in discrete manner in rats. One day prior to dosing day, male Wistar rats were acclimatized and randomly grouped according to their weight. At each time point (0.50, 1 and 2 hours) n=3 animals were used.
The test compounds were suitably preformulated and administered orally at (free base equivalent) 3 mg/kg. Blood samples were removed via cardiac puncture by using isoflurane anesthesia. The animals were sacrificed to collect brain tissue. Plasma was separated and brain samples were homogenized and stored frozen at −20° C. until analysis. The concentrations of the test compounds in plasma and brain were determined using LC-MS/MS method.
The test compounds were quantified in plasma and brain homogenate by qualified LC-MS/MS method using suitable extraction technique. The test compounds were quantified in the calibration range of 1-500 ng/mL in plasma and brain homogenate. Study samples were analyzed using calibration samples in the batch and quality control samples spread across the batch. Extent of brain-plasma ratio was calculated (Cb/Cp).

Male Wistar rats [5] = experiment: Object recognition task model (time induced memory deficit); type: in vivo, rat; settings: p.o.; for Exploration time mean ± S.E.M, Familiar object / Exploration time mean ± S.E.M, Novel object: choice trial 24 hours after T1
Procedure: Object Recognition Task Model
(§1) The cognition enhancing properties of compounds of this invention were estimated by using this model.
(§2) Male Wistar rats (8-10 weeks old) were used as experimental animals. Four animals were housed in each cage. Animals were kept on 20% food deprivation from a day prior to experimentation. Water was provided ad libitum throughout the experiment. Animals were maintained on a 12 hours light/dark cycle in temperature and humidity controlled room. The experiment was carried out in an open field made up of acrylic. Rats were habituated to individual arenas (open field) for 1 hour in the absence of any objects on day 1.
One group of 12 rats received vehicle and another set of animals received test compounds or test compounds and Donepezil, before the familiar (T1) and choice (T2) trials. During the familiarization phase, (T1), the rats were placed individually in the arena for 3 minutes, in which two identical objects (a1 and a2) were positioned 10 cm from the wall. 24 hours after T1, trial for long-term memory test was performed. The same rats were placed in the same arena as they were placed in T1 trial. During the choice phase (T2) rats were allowed to explore the arena for 3 minutes in presence of a copy of familiar object (a3) and one novel object (b). During the T1 and T2 trial, explorations of each object (defined as sniffing, licking, chewing or having moving vibrissae whilst directing the nose towards the object at a distance of less than 1 cm) were recorded using stopwatch.
(§3) T1 is the total time spent exploring the familiar objects (a1+a2).
(§4) T2 is the total time spent exploring the familiar object and novel object (a3+b). Discriminative index=Time spent with novel object/(time spent with novel and familiar object).
The object recognition test was performed as described in Behavioural Brain Research, 1988, 31, 47-59.

Male Wistar rats [6] = experiment: Object recognition task model - scopolamine challenge; type: in vivo, rat; settings: 0.3 mg/kg, p.o., with scopolamine
Procedure: Object Recognition Task Model—Scopolamine Challenge
as §1, §2
Rats received vehicle or vehicle and scopolamine or compound of the formula (I) and scopolamine, before the familiar (T1). During the familiarization phase, (T1), the rats were placed individually in the arena for 3 minutes, in which two identical objects (a1 and a2) were positioned 10 cm from the wall. 3 minutes after T1, trial for memory test was performed. The same rats were placed in the same arena as they were placed in T1 trial. During the choice phase (T2) rats were allowed to explore the arena for 3 minutes in presence of a copy of familiar object (a3) and one novel object (b). During the T1 and T2 trial, explorations of each object (defined as sniffing, licking, chewing or having moving vibrissae whilst directing the nose towards the object at a distance of less than 1 cm) were recorded using stopwatch.
as §3, §4

[7] = cited from earlier work; remark: listed apart in the source
[8] = choice trial 3 minutes after T1

Chain of recombinant human Muscarinic M1 receptor (P11229 whole entry): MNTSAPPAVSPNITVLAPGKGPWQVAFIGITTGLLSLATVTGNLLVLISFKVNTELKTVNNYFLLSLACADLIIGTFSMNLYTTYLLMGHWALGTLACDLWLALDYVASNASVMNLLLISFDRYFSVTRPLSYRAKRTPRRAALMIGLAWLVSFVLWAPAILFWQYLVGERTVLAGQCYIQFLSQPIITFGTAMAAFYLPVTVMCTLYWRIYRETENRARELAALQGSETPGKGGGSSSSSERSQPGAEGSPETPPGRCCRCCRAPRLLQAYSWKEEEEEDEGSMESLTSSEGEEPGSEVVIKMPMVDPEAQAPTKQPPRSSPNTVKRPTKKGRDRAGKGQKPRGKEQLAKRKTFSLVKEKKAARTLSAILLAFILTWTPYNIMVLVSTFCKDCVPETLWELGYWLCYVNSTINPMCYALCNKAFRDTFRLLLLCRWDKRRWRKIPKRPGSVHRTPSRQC

SMILES | EC50 [2] [nM] | AUC0-t ([3]; 1 mg/kg i.v. (bolus)) [ng·h/mL] | AUC0-t ([3]; 3 mg/kg oral (gavage)) [ng·h/mL] | clearance ([3]; iv, 1 mg/kg i.v. (bolus)) [mL/min/kg] | half-life ([3]; iv, 1 mg/kg i.v. (bolus)) [h] | Vd ([3]; iv, 1 mg/kg i.v. (bolus)) [L/kg] | Cmax ([3]; 3 mg/kg oral (gavage)) [ng/mL] | Tmax ([3]; 3 mg/kg oral (gavage)) [h] | half-life ([3]; 3 mg/kg oral (gavage)) [h] | bioavailability [3] [%] | Kp [4] | Inference (Male Wistar rats [5]; 1 mg/kg) | Exploration time mean ± S.E.M, Familiar object (Male Wistar rats [5]; 1 mg/kg) [s] | Exploration time mean ± S.E.M, Novel object (Male Wistar rats [5]; 1 mg/kg) [s] | further results
N#CC1(c2ccccn2)CCN(Cc2cc(C(=O)O)c(=O)n3ccccc23)CC1 [PQCA, 1-{[4-cyano-4-(pyridine-2-yl)piperidin-1-yl]methyl}-4-oxo-4H-quinolizine-3-carboxylic acid] |  |  |  |  |  |  |  |  |  |  |  |  |  |  | selectivity for M1 over the other muscarinic receptor sub types (M1 muscarinic receptor): highly selective; gastrointestinal side effects ([1]; at doses equal to or less than a fivefold margin from the minimum effective dose): no gastrointestinal side effects; efficacy in preclinical models of cognition ([1]; in vivo): efficacious
O=C(N[C@H]1CCCC[C@@H]1O)C1=CN(Cc2cccc(F)c2)c2ccccc2O1 [Example 7, N-(cis-1S, 2S-2-Hydroxycyclohexyl)-4-(3-fluorobenzyl)-4H-benzo[1,4]oxazine-2-carboxamide] | 891 | 553 ± 42 | 652 ± 227 | 29 ± 2 | 1.7 ± 0.3 | 4.3 ± 0.9 | 313 ± 111 | 0.5 | 1.8 ± 0.3 | 39 ± 14 | 1.04 ± 0.16 |  |  |  | Inference (Male Wistar rats [5]; 3 mg/kg): Active; Exploration time mean ± S.E.M, Familiar object (Male Wistar rats [5]; 3 mg/kg): 9.23 ± 1.53 s; Exploration time mean ± S.E.M, Novel object (Male Wistar rats [5]; 3 mg/kg): 13.92 ± 1.99 s
O=C(N[C@H]1CCCC[C@@H]1O)C1=CN(Cc2ccncc2)c2ccccc2O1 [Example 23, N-(cis-1S,2S-2-Hydroxycyclohexyl)-4-(pyridin-4-ylmethyl)-4H-benzo[1,4]oxazine-2-carboxamide] | 323 | 419 ± 182 | 437 ± 138 | 44 ± 21 | 1.5 ± 0.9 | 6.8 ± 7.1 | 428 ± 78 | 0.42 ± 0.14 | 1.2 ± 0.6 | 35 ± 11 | 0.32 ± 0.02 | Active | 13.15 ± 1.55 | 17.99 ± 2.53 | 
O=C(N[C@H]1CCCC[C@@H]1O)C1=CN(Cc2ccccc2F)c2ccccc2O1 [Example 1, N-(cis-1S, 2S-2-Hydroxycyclohexyl)-4-(2-fluorobenzyl)-4H-benzo[1,4]oxazine-2-carboxamide] | 422 | 834 ± 101 | 989 ± 386 | 19 ± 2 | 2.3 ± 0.7 | 4 ± 1.4 | 419 ± 162 | 0.5 | 2.3 ± 1.1 | 40 ± 15 | 1.18 ± 0.38 | Active | 10.93 ± 1.98 | 19.27 ± 2.94 | Inference (Male Wistar rats [6]): Active; Exploration time mean ± S.E.M, Familiar object (Male Wistar rats [6]; [8]): 11.57 ± 1.51 s; Exploration time mean ± S.E.M, Novel object (Male Wistar rats [6]; [8]): 22.66 ± 2.90 s
COc1cccc(CN2C=C(C(=O)N[C@H]3CCCC[C@@H]3O)Oc3ccccc32)c1 [Example 9, N-(cis-1S, 2S-2-Hydroxycyclohexyl)-4-(3-methoxybenzyl)-4H-benzo[1,4]oxazine-2-carboxamide] | 699 | 711 ± 137 | 1180 ± 245 | 24 ± 4 | 4.2 ± 2.2 | 8.3 ± 4.1 | 320 ± 68 | 1.33 ± 0.58 | 2.9 ± 1.3 | 55 ± 11 | 0.65 ± 0.2 | Active | 8.64 ± 0.82 | 18.55 ± 1.70 | 
CCCCCCOc1nsnc1C1=CCCN(C)C1 [Xanomeline] |  |  |  |  |  |  |  |  |  |  |  |  |  |  | effects on cognition ([7]; clinical Alzheimer's disease trial): significant effects on cognition; gastrointestinal side effects ([7]; clinical trials): gastrointestinal side effects led to a high dropout rate
O=C(N[C@H]1CCCC[C@@H]1O)C1=CN(Cc2ccc(Cl)nc2)c2ccccc2O1 [Example 21, N-(cis-1S,2S-2-Hydroxycyclohexyl)-4-(2-chloropyridin-5-ylmethyl)-4H-benzo[1,4]oxazine-2-carboxamide] | 369 | 1490 ± 149 | 4270 ± 800 | 11 ± 1 | 1.7 ± 0.3 | 1.5 ± 0.1 | 992 ± 150 | 0.67 ± 0.29 | 2.7 ± 0.3 | 95 ± 18 | 0.25 ± 0.08 | Active | 9.18 ± 1.63 | 17.67 ± 2.89 | 
